Measured values reported in the Kinase Knowledgebase extract (Sharma et al. 2016).

Key:
EGFR (human) = EGFR (human) (UniProt P00533)
[1] = target: EGFR (human), P00533 [L858R]
[2] = target: EGFR (Human), P00533 [T790M/L858R]
[3] = target: EGFR (Human), P00533 [Assessment of EGFR-Del T790M Dependent Cell Proliferation in BaF3 Cells]
[4] = target: EGFR (Human), P00533 [T790M/L858R]; settings: baf3

EGFR (Human), P00533 [Assessment of EGFR-Del T790M Dependent Cell Proliferation in BaF3 Cells], sequence (P00533 whole entry, looked up, stated change not applied): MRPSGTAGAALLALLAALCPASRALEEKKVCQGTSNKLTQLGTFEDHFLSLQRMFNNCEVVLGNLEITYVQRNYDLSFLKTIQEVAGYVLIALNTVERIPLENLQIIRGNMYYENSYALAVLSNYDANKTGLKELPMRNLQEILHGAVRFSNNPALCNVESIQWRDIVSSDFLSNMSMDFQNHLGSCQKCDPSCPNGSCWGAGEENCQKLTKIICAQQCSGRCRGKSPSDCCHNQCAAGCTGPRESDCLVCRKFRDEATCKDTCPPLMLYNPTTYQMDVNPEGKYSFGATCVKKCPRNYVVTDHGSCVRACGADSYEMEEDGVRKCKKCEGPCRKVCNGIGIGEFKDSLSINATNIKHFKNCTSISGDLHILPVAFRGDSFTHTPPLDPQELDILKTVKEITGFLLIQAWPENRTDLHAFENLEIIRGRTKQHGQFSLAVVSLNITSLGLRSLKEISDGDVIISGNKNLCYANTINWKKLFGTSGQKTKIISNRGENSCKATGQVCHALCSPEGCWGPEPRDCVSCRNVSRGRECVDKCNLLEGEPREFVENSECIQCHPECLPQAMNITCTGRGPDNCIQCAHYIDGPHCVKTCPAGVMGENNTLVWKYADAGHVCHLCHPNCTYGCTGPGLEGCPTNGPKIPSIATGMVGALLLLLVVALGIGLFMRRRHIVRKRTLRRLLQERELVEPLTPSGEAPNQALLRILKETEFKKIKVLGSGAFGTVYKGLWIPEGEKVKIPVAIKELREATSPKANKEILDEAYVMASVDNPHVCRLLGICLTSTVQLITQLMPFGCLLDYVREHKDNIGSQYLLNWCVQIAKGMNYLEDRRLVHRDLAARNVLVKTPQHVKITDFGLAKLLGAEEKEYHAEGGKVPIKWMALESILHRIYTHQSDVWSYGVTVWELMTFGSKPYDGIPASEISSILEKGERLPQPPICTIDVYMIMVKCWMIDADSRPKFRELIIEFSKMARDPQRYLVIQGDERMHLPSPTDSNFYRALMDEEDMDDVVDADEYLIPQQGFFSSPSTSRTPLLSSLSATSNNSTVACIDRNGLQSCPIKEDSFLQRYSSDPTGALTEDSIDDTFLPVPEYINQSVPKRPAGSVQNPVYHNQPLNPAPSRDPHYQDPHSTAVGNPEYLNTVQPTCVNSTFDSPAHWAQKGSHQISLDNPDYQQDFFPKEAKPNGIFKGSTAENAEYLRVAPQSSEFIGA
EGFR (human), sequence (P00533 whole entry, looked up): as the sequence (P00533 whole entry, looked up, stated change not applied) above
EGFR (Human), P00533 [T790M/L858R], sequence (P00533 whole entry T790M/L858R, looked up): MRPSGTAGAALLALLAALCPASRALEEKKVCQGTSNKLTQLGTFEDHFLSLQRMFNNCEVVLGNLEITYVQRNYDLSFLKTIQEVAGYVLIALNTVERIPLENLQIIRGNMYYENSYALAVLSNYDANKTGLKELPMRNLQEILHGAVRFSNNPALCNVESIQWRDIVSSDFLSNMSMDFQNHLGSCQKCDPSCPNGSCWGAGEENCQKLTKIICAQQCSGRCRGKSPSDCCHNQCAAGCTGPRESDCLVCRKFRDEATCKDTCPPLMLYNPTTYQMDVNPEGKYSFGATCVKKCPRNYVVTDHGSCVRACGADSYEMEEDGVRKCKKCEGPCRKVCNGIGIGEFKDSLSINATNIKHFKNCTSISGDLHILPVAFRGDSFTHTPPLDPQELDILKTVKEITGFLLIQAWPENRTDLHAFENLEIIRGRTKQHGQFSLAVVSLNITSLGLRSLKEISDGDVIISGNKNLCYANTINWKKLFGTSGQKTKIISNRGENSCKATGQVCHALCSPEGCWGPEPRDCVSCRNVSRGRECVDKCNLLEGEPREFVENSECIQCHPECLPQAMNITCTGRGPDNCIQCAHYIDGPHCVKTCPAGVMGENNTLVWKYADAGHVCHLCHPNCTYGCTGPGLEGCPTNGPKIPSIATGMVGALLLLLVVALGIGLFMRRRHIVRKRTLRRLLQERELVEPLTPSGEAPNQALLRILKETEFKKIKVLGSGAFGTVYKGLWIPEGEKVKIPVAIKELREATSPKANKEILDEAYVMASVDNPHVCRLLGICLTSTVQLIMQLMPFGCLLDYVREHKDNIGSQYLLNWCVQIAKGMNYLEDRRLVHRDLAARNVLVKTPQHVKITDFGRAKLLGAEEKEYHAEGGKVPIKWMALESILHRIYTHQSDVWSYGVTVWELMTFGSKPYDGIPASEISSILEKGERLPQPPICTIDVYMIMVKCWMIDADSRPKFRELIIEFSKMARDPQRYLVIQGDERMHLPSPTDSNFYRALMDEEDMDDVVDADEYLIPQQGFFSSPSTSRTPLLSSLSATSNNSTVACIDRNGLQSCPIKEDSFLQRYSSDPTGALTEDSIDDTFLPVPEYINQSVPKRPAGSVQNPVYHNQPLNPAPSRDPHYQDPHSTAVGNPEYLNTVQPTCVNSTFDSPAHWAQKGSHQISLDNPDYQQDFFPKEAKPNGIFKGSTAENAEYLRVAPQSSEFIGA
EGFR (human), P00533 [L858R], sequence (P00533 whole entry L858R, looked up): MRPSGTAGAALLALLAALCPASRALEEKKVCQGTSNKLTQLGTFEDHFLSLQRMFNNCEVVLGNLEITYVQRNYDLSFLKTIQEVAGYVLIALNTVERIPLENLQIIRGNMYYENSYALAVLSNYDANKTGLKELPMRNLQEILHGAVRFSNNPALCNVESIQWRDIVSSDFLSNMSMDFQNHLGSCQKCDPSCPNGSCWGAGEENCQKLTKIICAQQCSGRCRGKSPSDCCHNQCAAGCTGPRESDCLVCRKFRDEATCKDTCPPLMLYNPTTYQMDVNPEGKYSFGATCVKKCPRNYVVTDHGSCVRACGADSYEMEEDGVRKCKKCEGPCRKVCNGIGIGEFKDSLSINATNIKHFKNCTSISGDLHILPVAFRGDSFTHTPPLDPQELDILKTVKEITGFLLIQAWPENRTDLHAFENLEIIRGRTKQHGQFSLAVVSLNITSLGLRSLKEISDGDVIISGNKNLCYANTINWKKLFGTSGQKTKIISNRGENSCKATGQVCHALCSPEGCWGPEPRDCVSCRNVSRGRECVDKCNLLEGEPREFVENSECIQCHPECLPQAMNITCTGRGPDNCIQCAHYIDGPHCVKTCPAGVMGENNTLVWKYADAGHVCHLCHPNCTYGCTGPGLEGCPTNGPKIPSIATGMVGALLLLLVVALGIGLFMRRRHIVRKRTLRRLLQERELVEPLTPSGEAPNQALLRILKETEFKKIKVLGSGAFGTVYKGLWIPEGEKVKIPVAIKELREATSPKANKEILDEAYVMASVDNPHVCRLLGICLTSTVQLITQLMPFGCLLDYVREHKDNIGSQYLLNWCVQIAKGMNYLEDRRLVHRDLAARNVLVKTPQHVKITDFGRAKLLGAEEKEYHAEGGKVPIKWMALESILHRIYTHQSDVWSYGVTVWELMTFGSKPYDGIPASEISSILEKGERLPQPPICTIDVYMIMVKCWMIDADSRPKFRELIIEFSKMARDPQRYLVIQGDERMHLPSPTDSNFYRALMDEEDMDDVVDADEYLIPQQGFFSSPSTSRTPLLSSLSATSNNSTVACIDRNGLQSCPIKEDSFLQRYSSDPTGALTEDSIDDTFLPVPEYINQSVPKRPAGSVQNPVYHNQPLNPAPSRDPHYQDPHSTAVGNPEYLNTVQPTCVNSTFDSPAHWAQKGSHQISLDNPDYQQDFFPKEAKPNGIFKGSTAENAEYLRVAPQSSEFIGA

SMILES | IC50 (EGFR (human)) [nM] | IC50 [1] [nM] | IC50 [2] [nM] | IC50 [3] [nM] | IC50 [4] [nM]
COc1cc(N2CCOCC2)c(NC(=O)C#CCCN2CCCCC2)cc1Nc1ncc(Cl)c(Nc2ccccc2P(C)(C)=O)n1 | < 50 | < 50 | < 50 | < 50 | < 50
C=C(CN1CCOCC1)C(=O)Nc1ccc(OC)c(Nc2ncc(Cl)c(Nc3ccccc3P(C)(C)=O)n2)c1 | < 50 | < 50 | < 50 | < 50 | < 50
COc1cc(N2CCOCC2)c(NC(=O)C#CCCN2CCN(C)CC2)cc1Nc1ncc(Cl)c(Nc2ccccc2P(C)(C)=O)n1 | < 50 | < 50 | < 50 | < 50 | < 50
C=CC(=O)Nc1cc(Nc2ncc(Cl)c(Nc3ccccc3P(C)(C)=O)n2)c(OC)cc1C#CC(C)(C)N | < 50 | < 50 | < 50 | < 50 | < 50
C=CC(=O)Nc1ccc(CC)c(Nc2ncc(Cl)c(Nc3ccccc3P(C)(C)=O)n2)c1 | < 50 | < 50 | < 50 | < 50 | < 50
C=CC(=O)Nc1cc(Nc2ncc(Cl)c(Nc3ccccc3P(C)(C)=O)n2)c(OC)cc1OC(COCC)CN(C)C (stereo not given) | < 50 | < 50 | < 50 | < 50 | < 50
C=C(Cl)C(=O)Nc1ccc(OC)c(Nc2ncc(Cl)c(Nc3ccccc3P(C)(C)=O)n2)c1 | < 50 | < 50 | < 50 | < 50 | 101 to 250
COc1cc(F)c(NC(=O)CCl)cc1Nc1ncc(Cl)c(Nc2ccccc2P(C)(C)=O)n1 | < 50 | < 50 | < 50 | < 50 | < 50
C=CC(=O)Nc1ccc(Nc2ncc(Cl)c(Nc3cccc(OCCN4CCCCC4)c3P(C)(C)=O)n2)c(OC)c1 | 101 to 250 | < 50 | < 50 | < 50 | 101 to 250
CCOC(=O)/C=C/C(=O)Nc1ccc(OC)c(Nc2ncc(Cl)c(Nc3ccccc3P(C)(C)=O)n2)c1 | < 50 | < 50 | < 50 | < 50 | < 50
C=CC(=O)Nc1cc(Nc2ncc(Cl)c(Nc3ccccc3P(C)(C)=O)n2)c(OC)cc1OCCN1CCCCC1 | < 50 | < 50 | < 50 | < 50 | < 50
C=CC(=O)Nc1cc(Nc2ncc(Cl)c(Nc3ccccc3P(C)(C)=O)n2)c(OC)cc1C#CCCN(C)C | < 50 | < 50 | < 50 | < 50 | < 50
C=C(C)C(=O)Nc1cc(Nc2ncc(Cl)c(Nc3ccccc3P(C)(C)=O)n2)c(OC)cc1N1CC[C@@H](N(C)C)C1 | 101 to 250 | < 50 | < 50 | < 50 | < 50
C=C(CN1CCN(S(C)(=O)=O)CC1)C(=O)Nc1ccc(OC)c(Nc2ncc(Cl)c(Nc3ccccc3P(C)(C)=O)n2)c1 | < 50 | < 50 | < 50 | < 50 | < 50
C=CC(=O)Nc1ccc(OC)c(Nc2ncc(Cl)c(Nc3ccc(OC4CCOC4)cc3P(C)(C)=O)n2)c1 (stereo not given) | < 50 | < 50 | < 50 | < 50 | 50 to 100
COc1ccc(NC(=O)/C=C/CN2CCCCC2)cc1Nc1ncc(Cl)c(Nc2ccccc2P(C)(C)=O)n1 | < 50 | < 50 | < 50 | < 50 | < 50
C=C(CN1CCC(N2CCOCC2)CC1)C(=O)Nc1ccc(OC)c(Nc2ncc(Cl)c(Nc3ccccc3P(C)(C)=O)n2)c1 | < 50 | < 50 | < 50 | < 50 | < 50
C=CC(=O)Nc1cc(Nc2ncc(Cl)c(Nc3ccccc3P(C)(C)=O)n2)c(OC)cc1OCc1ccncc1 | < 50 | < 50 | < 50 | < 50 | 101 to 250
C=CC(=O)Nc1cc(Nc2ncc(Cl)c(Nc3ccccc3P(C)(C)=O)n2)c(OC)cc1N1CCC(N2CCN(C)CC2)C1 (stereo not given) | < 50 | < 50 | < 50 | 50 to 100 | 101 to 250
C=CC(=O)Nc1cc(Nc2ncc(Cl)c(Nc3ccccc3P(C)(C)=O)n2)c(OC)cc1OCc1cccnc1 | 50 to 100 | < 50 | < 50 | 50 to 100 | 101 to 250
C=CC(=O)Nc1ccc(OC)c(Nc2ncc(OC)c(Nc3ccccc3P(C)(C)=O)n2)c1 | 50 to 100 | < 50 | < 50 | < 50 | 50 to 100
C=CC(=O)Nc1cc(Nc2ncc(Cl)c(Nc3ccccc3P(C)(C)=O)n2)c(OC)cc1C#CCN(C)C1CCCC1 | < 50 | < 50 | < 50 | < 50 | < 50

SMILES | IC50 (EGFR (human)) [nM] | IC50 [1] [nM] | IC50 [2] [nM] | IC50 [3] [nM] | IC50 [4] [nM]
COc1ccc(NC(=O)CCl)cc1Nc1ncc(Cl)c(Nc2ccccc2P(C)(C)=O)n1 | < 50 | < 50 | < 50 | < 50 | < 50
COc1cc(N2CCOCC2)c(NC(=O)C#CCN(C)C)cc1Nc1ncc(Cl)c(Nc2ccccc2P(C)(C)=O)n1 | < 50 | < 50 | < 50 | < 50 | < 50
C=CC(=O)Nc1cc(Nc2ncc(Cl)c(Nc3ccccc3P(C)(C)=O)n2)c(OC)cc1N1CCC(N2CCCC2)C1 (stereo not given) | < 50 | < 50 | < 50 | < 50 | < 50
C=CC(=O)Nc1cc(Nc2ncc(Cl)c(Nc3ccccc3P(C)(C)=O)n2)c(OC)cc1C#CC(C)(C)N1CCCC1 | 50 to 100 | < 50 | < 50 | < 50 | < 50
C=CC(=O)Nc1cc(Nc2ncc(Cl)c(Nc3ccccc3P(C)(C)=O)n2)c(OC)cc1N1CC[C@@H](N(C)C)C1 | < 50 | < 50 | < 50 | < 50 | < 50
C=CC(=O)Nc1cc(Nc2ncc(Cl)c(Nc3ccccc3P(C)(C)=O)n2)c(OC)cc1N1CC(N2CCCC2)C1 | < 50 | < 50 | < 50 | < 50 | < 50
COCC#CC(=O)Nc1cc(Nc2ncc(Cl)c(Nc3ccccc3P(C)(C)=O)n2)c(OC)cc1N1CCC(N(C)C)C1 (stereo not given) | < 50 | < 50 | < 50 | < 50 | < 50
C=CC(=O)Nc1cc(Nc2ncc(Cl)c(Nc3ccccc3P(C)(C)=O)n2)c(OC)cc1OC(CF)CN(CC)CC (stereo not given) | < 50 | < 50 | < 50 | < 50 | < 50
C=CC(=O)Nc1cc(Nc2ncc(Cl)c(Nc3ccccc3P(C)(C)=O)n2)c(OC)cc1OC1CCN(C)C1 (stereo not given) | < 50 | < 50 | < 50 | < 50 | < 50
C=CC(=O)Nc1cc(Nc2ncc(Cl)c(Nc3ccccc3P(C)(C)=O)n2)c(OC)cc1OCCN1CCOCC1 | < 50 | < 50 | < 50 | 50 to 100 | 101 to 250
C=CC(=O)Nc1cc(Nc2ncc(Cl)c(Nc3ccccc3P(C)(C)=O)n2)c(OC)cc1N1CCC(N(C)CCOC)C1 (stereo not given) | < 50 | < 50 | < 50 | < 50 | < 50
C=CC(=O)Nc1cc(Nc2ncc(Cl)c(Nc3ccccc3P(C)(C)=O)n2)c(OC)cc1OCCN1CCCC1 | < 50 | < 50 | < 50 | < 50 | < 50
C=CC(=O)Nc1cc(Nc2ncc(Cl)c(Nc3ccccc3P(C)(C)=O)n2)c(OC)cc1N1CCC(N(C)C)CC1 | < 50 | < 50 | < 50 | < 50 | 101 to 250
C=CC(=O)Nc1cc(Nc2ncc(Cl)c(Nc3ccccc3P(C)(C)=O)n2)c(OC)cc1N(C)CCN(C)CCF | < 50 | < 50 | < 50 | < 50 | < 50
C=CC(=O)Nc1cc(Nc2ncc(Cl)c(Nc3ccccc3P(C)(C)=O)n2)c(OC)cc1O[C@@H](COC)CN(C)C | < 50 | < 50 | < 50 | < 50 | < 50
C=CC(=O)Nc1cc(Nc2ncc(Cl)c(Nc3ccccc3P(C)(C)=O)n2)c(OC)cc1C#CCN1CCCCC1 | < 50 | < 50 | < 50 | < 50 | < 50
C=CC(=O)Nc1cc(Nc2ncc(Cl)c(Nc3ccccc3P(C)(C)=O)n2)c(CC)cc1C#CCN(C)C | < 50 | < 50 | < 50 | < 50 | < 50
C=CC(=O)Nc1cc(Nc2ncc(Cl)c(Nc3ccccc3P(C)(C)=O)n2)c(OC)cc1N1CC[C@H](N(C)C)C1 | < 50 | < 50 | < 50 | < 50 | < 50
C=CC(=O)Nc1cc(Nc2ncc(Cl)c(Nc3ccccc3P(C)(C)=O)n2)c(OC)cc1N1CCC(N2CCCCC2)CC1 | < 50 | < 50 | < 50 | < 50 | < 50
C=C(CN1CCCCC1)C(=O)Nc1ccc(OC)c(Nc2ncc(Cl)c(Nc3ccccc3P(C)(C)=O)n2)c1 | < 50 | < 50 | < 50 | < 50 | < 50
C=CC(=O)Nc1cc(Nc2ncc(Cl)c(Nc3ccccc3P(C)(C)=O)n2)c(OC)cc1C#CC(C)(C)N(CC)CC | < 50 | < 50 | < 50 | < 50 | < 50
